For 12 molecules, Ki results are on record in patent US20040138203A1, “Bicyclic lactams and sulfonamides with 5-ht1a -affinity and use thereof for preventing and treating cerebral ischaemia” (priority 2000, published 2004).

The target in the assay is T1, cloned human 5-HT1A receptors (Homo sapiens, UniProt P08908).
T1 construct: expressed in transfected cells; host or cells: HEK293 cells, kept under G-418 selection; membranes used
T1 sequence (P08908 1-422): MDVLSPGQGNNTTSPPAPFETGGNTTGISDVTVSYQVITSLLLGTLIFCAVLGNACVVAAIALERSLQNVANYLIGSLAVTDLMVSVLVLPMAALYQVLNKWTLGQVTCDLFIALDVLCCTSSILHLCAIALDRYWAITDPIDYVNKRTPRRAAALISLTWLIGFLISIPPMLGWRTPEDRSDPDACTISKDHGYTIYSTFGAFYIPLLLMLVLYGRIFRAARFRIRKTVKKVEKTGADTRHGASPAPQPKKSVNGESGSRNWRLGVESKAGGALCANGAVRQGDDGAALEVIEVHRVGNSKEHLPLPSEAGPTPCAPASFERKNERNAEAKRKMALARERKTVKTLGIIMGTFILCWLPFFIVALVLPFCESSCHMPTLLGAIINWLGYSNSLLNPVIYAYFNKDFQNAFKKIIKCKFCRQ
Put plainly: 5-HT1A binding assay using membranes from 5-HT1A receptor-expressing HEK293 cells (3H-8-OH-DPAT displacement). The settings on record: 3H-8-OH-DPAT 0.15 nM, HEK293 cell membranes, 90 min at 22° C. As to the method: The following test arrangement was used for determining the receptor binding affinity:
5-HT1A binding assay using membranes from 5-HT1A receptor-expressing HEK293 cells
Culturing 5-HT1A receptor-expressing HEK293 cells 5-HT1A-expressing HEK293 cells are cultured, at 37° C. and in a 5% CO2 atmosphere, in RPMI/Glutamax medium (RPMI 1640, 25 mM Hepes, 2 mM Glutamax, 10% FCS, 2 mM glutamine, penicillin/streptomycin (100 IU/ml each), geneticin G-418 sulfate, 400 mg/l, NaHCO3, 1.2 g/l) in culture flasks (T-175 triple flasks). After confluence has been reached, the medium is removed and the flasks are filled with 15 ml of sterile PBS (phosphate-buffered saline). The cells are detached by incubating them for 10 minutes (incubator, 37° C.) with a trypsin solution (0.05% trypsin, 0.0004% EDTA, 0.02% EGTA, 2.682 mM KCl, 1.47 mM KH2PO4, 6.46 mM NaHPO4, 136.89 mM NaCl). The detachment of the cells is promoted by knocking on the bottom of the flask. After having been transferred into 50 ml tubes (Greiner), the cells are centrifuged at 250×g at room temperature. The supernatant is discarded and the cells are resuspended in 10 ml of medium. The cells are aliquoted once again into culture flasks and cultured for a further 5 to 6 days until the membranes are prepared.
Preparing the Membranes from 5-HT1A Receptor-Expressing HEK293 Cells
The supernatants are removed from the cells and the culture flasks are filled with PBS. The cells are then incubated for 10 minutes with a trypsin solution (for composition see above). The detachment of the cells is promoted by knocking on the bottom of the flask. The cell suspension is removed and the remaining cells are likewise taken up in PBS by washing the culture flasks twice with PBS. The combined cell suspension is aliquoted into […] and centrifuged at 250×g and 4° C. for 10 minutes. The supernatants are discarded and the cells in the pellet are resuspended in PBS. 20 μl of the cell suspension are removed and the cell density is determined. The cells are centrifuged once again at 250×g (4° C.) for 10 minutes, after which the supernatant is discarded and the cells in the pellet are homogenized in 50 mM tris-HCl, pH 7.4 (1 ml/10^8 cells) using an Ultra-Turrax (30 sec).
The homogenate is aliquoted into cryotubes (1 ml/cryotube) and stored in liquid nitrogen until used in the binding assay.
The frozen membranes are thawed at 37° C., after which they are centrifuged at 48000*g (20 minutes) and then resuspended in binding buffer (50 mM Tris-HCl, pH 7.4, 5 mM CaCl2). An incubation assay mixture contains membrane material from […], 0.15 pmol (=0.15 nM) of 3H-8-OH-DPAT, and the substances to be tested, in a total of 1 ml of binding buffer. Nonspecific binding is determined in the presence of 10^−5 M 5-carboxamidotryptamine. Following a 90-minute incubation at 22° C., bound and free ligand are separated from each other by filtering through […] and subsequently washing with from 5 to 9 ml of ice-cold binding buffer. Before use, the GF/B filters are treated for at least 2 hours with 0.3% polyethylenimine. Following filtration, from 3 to 4 ml of Packard Ultima Gold XR are added to the filters and the radioactivity is determined by liquid scintillation counting in a Packard Tricarb.
Evaluating the Data from the 5-HT1A Binding Assay
The displacement curves are analyzed by nonlinear regression using a modified version of the “Ligand” program of Munson & Rodbard (Anal. Biochem., 107, 220 (1980)). The value of the theoretical nonspecific binding is assessed to be the theoretical binding of radioligand at infinitely high ligand concentration. In this connection, the measured values for the nonspecific binding are treated as data points of the displacement curve which correspond to experimental points at an infinitely high ligand concentration. […]
As usually defined, the Ki is a measure of affinity in units of concentration, obtained from inhibition or displacement. A lower Ki goes with higher affinity. `O=C1c2ccccc2CCN1CCN1CCN(c2nccc3ccccc23)CC1` [Example 1, 2-[2-(4-(1-Isoquinolinyl)-1-piperazinyl)ethyl]-3,4-dihydro-1(2H)-isoquinolinone] showed an inhibition constant Ki of 0.6 nM. `O=c1c2ccccc2ccn1CCN1CCN(c2nccc3ccccc23)CC1` [Example 2, 2-[2-(4-(1-Isoquinolinyl)-1-piperazinyl)-ethyl]-1(2H)-isoquinolinone] came in with a Ki of 0.6 nM. This counts as sub-nanomolar. Then `O=S1(=O)c2ccccc2CN1CCN1CCN(c2nccc3ccccc23)CC1` [Example 3, 2-[2-(4-(1-Isoquinolinyl)-1-piperazinyl)-ethyl]-2,3-dihydro-1,2-benzisothiazole 1,1-dioxide], with 1.6 nM; and `Cc1cccc(N2CCN(CCN3Cc4ccccc4C3=O)CC2)n1` [Example 4, 2-[2-(4-(6-Methyl-2-pyridinyl)-1-piperazinyl)-ethyl]-1-isoindolinone], with 2.6 nM. `O=C1Cc2ccccc2N1CCN1CCN(c2cccc(C(F)(F)F)c2)CC1` [Example 5, 1-[2-(4-(3-Trifluoromethylphenyl)-1-piperazinyl)ethyl]-1,3-dihydro-2H-indol-2-one] displayed a Ki of 2.9 nM. In turn, `O=C1CCc2ccccc2N1CCN1CCN(c2nccc3ccccc23)CC1` [Example 6, 1-[2-(4-(1-Isoquinolinyl)-1-piperazinyl)-ethyl]-3,4-dihydro-2(1H)-quinolinone] registered an inhibitory constant (Ki) of 4.1 nM. With `O=c1ccc2ccccc2n1CCN1CCN(c2nccc3ccccc23)CC1` [Example 7, 1-[2-(4-(1-Isoquinolinyl)-1-piperazinyl)-ethyl]-2(1H)-quinolinone] the figure was 2.4 nM; with `O=S1(=O)c2ccccc2CN1CCN1CCN(c2cccc3ccccc23)CC1` [Example 8, 2-[2-(4-(1-Naphthyl)-1-piperazinyl)ethyl]-2,3-dihydro-1,2-benzisothiazole 1,1-dioxide], 0.1 nM; with `Cc1cccc(N2CCN(CCN3Cc4ccccc4S3(=O)=O)CC2)n1` [Example 10, 2-[2-(4-(6-Methyl-2-pyridinyl)-1-piperazinyl)ethyl]-2,3-dihydro-1,2-benzisothiazole 1,1-dioxide], 0.5 nM.

The molecule `O=S1(=O)c2ccccc2CN1CCN1CCN(c2cccc(C(F)(F)F)c2)CC1` [Example 13, 2-[2-(4-(3-Trifluoromethylphenyl)-1-piperazinyl)ethyl]-2,3-dihydro-1,2-benzisothiazole 1,1-dioxide] registered an inhibition constant (Ki) of 1 nM.

On to `O=C1Cc2ccccc2N1CCN1CCN(c2nccc3ccccc23)CC1` [Example 19, 1-[2-(4-(1-Isoquinolinyl)-1-piperazinyl)ethyl]-1,3-dihydro-2H-indol-2-one], for which the Ki is 0.7 nM.

`O=C1c2ccccc2CN1CCN1CCN(c2nccc3ccccc23)CC1` [Example 22, 2-[2-(4-(1-Isoquinolinyl)-1-piperazinyl)ethyl]-1-isoindolinone]: the inhibitory constant (Ki) worked out at 5.4 nM.
